Patent publication US20110020518A1, “TASTE MODIFYING PRODUCT” (priority 2008, published 2011)

System: kokumi/umami taste
Experiment: Evaluation of alkylpyridines: taste panel of 8 trained panelists, samples in 0.3% aqueous NaCl
Format: in vivo
Settings: 10 ppm in 0.3% aqueous NaCl; scale 0 (no effect) to 10 (extremely strong kokumi/umami effect)
Protocol: Alkylpyridines shown in the following table were prepared by firstly being diluted into propylene glycol solvent in order to provide a 10% solution of the alkylpyridine. Each solution was then diluted using a 0.3% aqueous solution of NaCl, heated if necessary to achieve better dissolution, to a concentration of between 10 ppm and 30 ppm of the alkylpyridine. The samples were then stored at ambient temperature.
A panel consisting of 8 trained panelists evaluated the samples for taste properties on a scale of 0 to 10 where 0 denoted no kokumi/umami effect and 10 denoted extremely strong kokumi/umami effect.

SMILES | Kokumi/Umami taste intensity
CCCc1ccccn1 [2-Propylpyridine, reference compound] | 0
CCCCCc1cc(C)ccn1 [Compound of ex. 6, 4-methyl-2-pentylpyridine] | 0
CCCCCCCCCc1ccccn1 [Compound of ex. 3, 2-nonylpyridine] | 1
CCCCCCCc1ccccn1 [Compound of ex. 1, 2-heptylpyridine] | 7
CCCCCCCCc1ccccn1 [Compound of ex. 2, 2-octylpyridine] | 2
CCCCCCc1ccccn1 [2-Hexylpyridine] | 7
CCCCCCCCCCCc1ccccn1 [Compound of ex. 4, 2-undecylpyridine] | 0
CCCCCCCCCCCCc1ccccn1 [Compound of ex. 5, 2-dodecylpyridine] | 0
CCc1ccccn1 [2-Ethylpyridine, reference compound] | 0

Same assay, conditions: 20 ppm in 0.3% aqueous NaCl; scale 0 (no effect) to 10 (extremely strong kokumi/umami effect)

SMILES | Kokumi/Umami taste intensity
Cc1ccccn1 [2-picoline, reference compound] | 0

Same assay, conditions: 30 ppm in 0.3% aqueous NaCl; scale 0 (no effect) to 10 (extremely strong kokumi/umami effect)

SMILES | Kokumi/Umami taste intensity
c1ccncc1 [Pyridine, reference compound] | 0
